# Data published in ChEMBL document CHEMBL4330081, “Rational design of 5-((1H-imidazol-1-yl)methyl)quinolin-8-ol derivatives as novel bromodomain-containing protein 4 inhibitors” (Eur J Med Chem, 2019).
# Calls of active or inactive are those of the source. The rule behind the calls is not given here.
# Columns and labels:
# [1] = target: T1, Bromodomain-containing protein 4 (Homo sapiens, UniProt O60885); experiment: Inhibition of BRD4 BD1 (unknown origin) at 50 uM using biotin labelled NeC: SGRG-K(Ac)-GG-K(Ac)-GLG-K(Ac)-GGA-K(Ac)-RHRKVGG-K as substrate preincubated for 15 mins followed by substrate addition measured after 30 mins by alpha screen assay relative to control
# [2] = target: T1, Bromodomain-containing protein 4; experiment: Inhibition of BRD4 BD1 (unknown origin) using biotin labelled NeC: SGRG-K(Ac)-GG-K(Ac)-GLG-K(Ac)-GGA-K(Ac)-RHRKVGG-K as substrate preincubated for 15 mins followed by substrate addition measured after 30 mins by alpha screen assay
# [3] = target: T1, Bromodomain-containing protein 4; experiment: Inhibition of BRD4 BD1 (unknown origin) at 10 uM using biotin labelled NeC: SGRG-K(Ac)-GG-K(Ac)-GLG-K(Ac)-GGA-K(Ac)-RHRKVGG-K as substrate preincubated for 15 mins followed by substrate addition measured after 30 mins by alpha screen assay relative to control
# [4] = tested on: MDA-MB-231; experiment: Antiproliferative activity against human MDA-MB-231 cells after 72 hrs by CellTiter Glo luminescent assay; format: functional, cell-based; conditions: MDA-MB-231, 72 h
# [5] = tested on: MV4-11; experiment: Antiproliferative activity against human MV4-11 cells after 72 hrs by CellTiter Glo luminescent assay; format: functional, cell-based; conditions: MV4-11, 72 h
# [6] = target: T1, Bromodomain-containing protein 4
# Description: Stabilization of BRD4 BD1 (unknown origin) assessed as change in melting temperature at protein to test compound molar ratio of 1:40 by SYPRO Orange dye based fluorescence analysis
# [7] = target: T1, Bromodomain-containing protein 4; experiment: Inhibition of BRD4 in human MDA-MB-231 cells assessed as down regulation of c-myc at 3.125 to 50 uM after 6 hrs by Western blot analysis; format: cell-based
# [8] = target: T1, Bromodomain-containing protein 4; experiment: Inhibition of BRD4 in human MV4-11 cells assessed as down regulation of c-myc at 3.125 to 50 uM after 6 hrs by Western blot analysis; format: cell-based
# [9] = tested on: MM1.S; experiment: Antiproliferative activity against human MM1S cells after 72 hrs by CellTiter Glo luminescent assay; format: functional, cell-based
# [10] = Half life in human hepatocytes at 1 uM up to 120 mins by LC/MS analysis; format: ADME, cell-based, Hepatocyte
# [11] = target: T1, Bromodomain-containing protein 4; experiment: Inhibition of recombinant full length human N-terminal His6-tagged BRD4 (2 to 1362 residues) expressed in baculovirus infected insect cells using histone H4 peptide as substrate by alpha screen assay
# [12] = target: T1, Bromodomain-containing protein 4; experiment: Stabilization of BRD4 BD1 (unknown origin) assessed as change in melting temperature at protein to test compound molar ratio of 1:80 by SYPRO Orange dye based fluorescence analysis
# [13] = target: hERG (KCNH2) (Homo sapiens, UniProt Q12809); experiment: in vitro; conditions: CHO cells expressing human ERG
# Description: Inhibition of human ERG expressed in CHO cells at 40 uM at -80 mV holding potential after 2.5 mins by Qpatch clamp assay relative to control
# [14] = target: T1, Bromodomain-containing protein 4; experiment: Stabilization of BRD4 BD1 (unknown origin) assessed as change in melting temperature at protein to test compound molar ratio of 1:20 by SYPRO Orange dye based fluorescence analysis
# [15] = target: T1, Bromodomain-containing protein 4; experiment: Stabilization of BRD4 BD1 (unknown origin) assessed as change in melting temperature at protein to test compound molar ratio of 1:10 by SYPRO Orange dye based fluorescence analysis
# [16] = target: T1, Bromodomain-containing protein 4; experiment: Inhibition of BRD4 in human MV4-11 cells assessed as down regulation of c-myc after 6 hrs by Western blot analysis; format: cell-based
# [17] = target: T1, Bromodomain-containing protein 4; experiment: Inhibition of BRD4 in human MM1S cells assessed as down regulation of c-myc after 6 hrs by Western blot analysis; format: cell-based
# hERG (KCNH2), sequence (Q12809 whole entry): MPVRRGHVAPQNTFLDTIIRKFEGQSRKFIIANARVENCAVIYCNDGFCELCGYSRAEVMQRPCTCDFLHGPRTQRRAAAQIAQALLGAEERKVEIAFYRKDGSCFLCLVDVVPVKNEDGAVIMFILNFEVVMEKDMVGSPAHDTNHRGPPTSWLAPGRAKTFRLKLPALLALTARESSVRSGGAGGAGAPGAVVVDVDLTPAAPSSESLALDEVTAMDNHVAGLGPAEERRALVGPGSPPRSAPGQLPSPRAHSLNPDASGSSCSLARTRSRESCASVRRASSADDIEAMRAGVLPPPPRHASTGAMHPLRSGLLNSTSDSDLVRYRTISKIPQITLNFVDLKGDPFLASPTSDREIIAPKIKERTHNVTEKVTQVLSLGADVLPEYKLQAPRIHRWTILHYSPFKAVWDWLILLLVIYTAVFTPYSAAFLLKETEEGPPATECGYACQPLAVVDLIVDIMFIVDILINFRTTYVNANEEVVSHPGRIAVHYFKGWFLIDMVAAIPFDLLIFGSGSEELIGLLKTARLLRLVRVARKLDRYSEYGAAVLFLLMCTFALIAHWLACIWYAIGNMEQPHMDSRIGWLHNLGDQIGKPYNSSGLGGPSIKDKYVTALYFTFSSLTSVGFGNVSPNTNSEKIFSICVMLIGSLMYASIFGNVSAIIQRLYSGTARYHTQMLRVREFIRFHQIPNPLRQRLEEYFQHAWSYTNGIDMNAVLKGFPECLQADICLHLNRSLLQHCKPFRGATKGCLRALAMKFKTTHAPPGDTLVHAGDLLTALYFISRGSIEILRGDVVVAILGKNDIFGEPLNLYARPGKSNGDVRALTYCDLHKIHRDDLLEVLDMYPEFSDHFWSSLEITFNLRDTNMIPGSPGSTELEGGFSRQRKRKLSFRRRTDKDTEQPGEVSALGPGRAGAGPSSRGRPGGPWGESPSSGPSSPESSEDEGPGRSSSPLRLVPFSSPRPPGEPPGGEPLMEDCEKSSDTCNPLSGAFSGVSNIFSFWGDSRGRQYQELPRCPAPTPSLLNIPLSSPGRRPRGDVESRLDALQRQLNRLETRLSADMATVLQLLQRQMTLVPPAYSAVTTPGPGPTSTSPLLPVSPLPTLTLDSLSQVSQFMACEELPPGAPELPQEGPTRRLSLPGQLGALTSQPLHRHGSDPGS
structure (smiles),measurement,setting,value
Oc1ccc(CN2CCCCCC2)c2cccnc12,inhibition,[1],46 to 99%
same,IC50,[2],670 nM
Cc1ccc(C(=O)C[n+]2cccc3cccc(O)c32)cc1,inhibition,[1],-0%
Oc1ccc(CNc2ccc(C(F)(F)F)cc2)c2cccnc12,IC50,[2],4800 nM
CC1=NN(c2ccc3cccc(O)c3n2)C(=O)C1,IC50,[2],1000 nM
same,inhibition,[3],99%
O=C(C[n+]1cccc2cccc(O)c21)c1ccc(F)cc1,inhibition,[1],-0%
O=[N+]([O-])c1ccc2c(c1)ncn2Cc1ccc(O)c2ncccc12,IC50,[4],1100 nM
same,IC50,[5],1000 nM
same,ΔTm,[6],4 °C
same,IC50,[2],107 nM
same,inhibition,[7],inactive
same,inhibition,[8],Active
same,IC50,[9],10900 nM
same,half-life at 1 µM,[10],27 min
Oc1ccc(CSc2ccccc2)c2cccnc12,IC50,[2],3000 nM
same,inhibition,[3],86%
Cc1cc(O)c2cccc(O)c2n1,inhibition,[1],-0%
O=C(C[n+]1cccc2cccc(O)c21)c1ccc(Cl)cc1,inhibition,[1],-0%
Cc1cc(C)c2ccc(/C=N/O)nc2c1O,inhibition,[3],6%
Oc1c(Br)cc(/C=C/c2ccc3cccc(O)c3n2)cc1Br,inhibition,[1],-0%
N=C(N)NCCC[C@H](NC(=O)CCC(=O)OC[N+]1(c2cc(=O)c3cccc(-c4ccccc4)c3o2)CCOCC1)C(=O)NCC(=O)N[C@@H](CC(=O)O)C(=O)N[C@@H](CO)C(=O)[O-] [SF-1126],IC50,[11],5300 nM
O=[N+]([O-])c1cccc(-c2ccc(/C=C/c3ccc4cccc(O)c4n3)o2)c1,inhibition,[1],-0%
Oc1ccc(Cn2cncn2)c2cccnc12,IC50,[4],6700 nM
same,IC50,[5],5200 nM
same,ΔTm,[6],3.2 °C
same,IC50,[2],95 nM
same,IC50,[9],4300 nM
COC(=O)C(O)(c1cc(C)c2cccnc2c1O)C(F)(F)F (stereo not drawn),inhibition,[1],97%
Oc1ccc(CNc2ccc(Cl)cn2)c2cccnc12,inhibition,[3],12%
Oc1cccc2ccc(/C=C/c3cccc(OCc4ccccc4Cl)c3)nc12,inhibition,[1],-0%
COc1nnc2ccc(N3CCC(c4ccc(OCCN5CCN(C)C(=O)C5C)cc4)CC3)nn12 (stereo not drawn),IC50,[11],1.7 nM
Cc1nnn(C)c1-c1cnc2c3ccc(C(C)(C)O)cc3n(C(c3ccccc3)C3CCOCC3)c2c1 (stereo not drawn),IC50,[11],< 5 nM
CCOC(=O)C1CCCN(Cc2ccc(O)c3ncccc23)C1 (stereo not drawn),inhibition,[1],97.8%
same,IC50,[2],738 nM
O=[N+]([O-])c1ccc(O)c2ncccc12 [NITROXOLINE],IC50,[5],4900 nM
same,ΔTm,[6],3.9 °C
O=C(CCc1ccccc1)N/N=C/c1ccc(O)c2ncccc12,IC50,[2],4300 nM
same,inhibition,[3],86%
Cn1c(/N=N/c2ccc(O)c3ncccc23)nc2ccccc21,IC50,[2],370 nM
same,inhibition,[3],100%
CC(=O)Oc1ccc(Cn2ccnc2)c2cccnc12,IC50,[5],28500 nM
same,ΔTm,[6],4.3 °C
same,IC50,[2],61 nM
Nc1ccc(-c2nc3ccc(-c4nc5ccc(N)cc5[nH]4)cc3[nH]2)cc1,inhibition,[3],-0%
O=C(C[n+]1cccc2cccc(O)c21)c1ccccc1,inhibition,[1],-0%
O=C(Cc1ccccc1)N/N=C/c1ccc(O)c2ncccc12,IC50,[2],4700 nM
same,inhibition,[3],82%
Oc1ccc(CNc2ccccc2Br)c2cccnc12,inhibition,[1],46%
O=C1c2ccccc2C(=O)N1Cc1ccc(O)c2ncccc12,inhibition,[3],30%
Oc1ccc(Cn2ccnc2)c2cccnc12,IC50,[5],27000 nM
same,ΔTm,[6],3.9 °C
same,IC50,[2],101 nM
same,ΔTm,[12],5 °C
same,"inhibition at 2.5 min, 40 µM",[13],10%
same,ΔTm,[14],2.8 °C
same,ΔTm,[15],1.8 °C
same,half-life at 1 µM,[10],21 min
O=[N+]([O-])c1cc([N+](=O)[O-])c2cccnc2c1O,inhibition,[3],27%
O=C(Oc1ccc(Cn2ccnc2)c2cccnc12)c1ccccc1,IC50,[4],12300 nM
same,IC50,[5],9000 nM
same,ΔTm,[6],3.8 °C
same,IC50,[2],67 nM
same,IC50,[9],2900 nM
same,half-life at 1 µM,[10],1.4 min
Oc1ccc(CN2CCn3c(nnc3C(F)(F)F)C2)c2cccnc12,IC50,[5],22400 nM
same,ΔTm,[6],4.9 °C
same,IC50,[2],68 nM
Oc1ccc(COn2nnc3ccccc32)c2cccnc12,IC50,[5],12700 nM
same,ΔTm,[6],4.4 °C
same,IC50,[2],82 nM
O=C1c2ccccc2C(=O)N1CCCOc1ccc(Cn2ccnc2)c2cccnc12,inhibition,[3],21%
CCCOCc1ccc(O)c2ncccc12,IC50,[2],2100 nM
same,inhibition,[3],96%
Oc1ccc(Cn2nnc3ccccc32)c2cccnc12,IC50,[4],1300 nM
same,IC50,[5],1000 nM
same,ΔTm,[6],4.3 °C
same,IC50,[2],155 nM
same,"inhibition at 2.5 min, 40 µM",[13],24%
same,IC50,[9],300 nM
O=C(N/N=C/c1ccc(O)c2ncccc12)c1cccc(Br)c1,IC50,[2],5200 nM
same,inhibition,[3],73%
Oc1ccc(Cn2cccn2)c2cccnc12,IC50,[4],3600 nM
same,IC50,[5],1600 nM
same,ΔTm,[6],4.5 °C
same,IC50,[2],76 nM
same,"inhibition at 2.5 min, 40 µM",[13],8.3%
same,IC50,[9],700 nM
Oc1ccc(CNc2cccc(C(F)(F)F)c2)c2cccnc12,IC50,[2],4800 nM
same,inhibition,[3],84%
Cc1cc(C)c2ccc(C=O)nc2c1O,inhibition,[3],-0%
O=C1CN(Cc2ccc(O)c3ncccc23)Cc2ncccc2N1,IC50,[5],9600 nM
same,ΔTm,[6],4.3 °C
same,IC50,[2],92 nM
CC(=O)Oc1ccc(Cn2cnc(F)c2)c2cccnc12,IC50,[4],2200 nM
same,IC50,[5],2900 nM
same,ΔTm,[6],4.7 °C
same,IC50,[2],70 nM
same,IC50,[9],1100 nM
O=S(=O)(O)c1ccc2cccc(O)c2n1,inhibition,[1],47.4%
Cc1cc(C)c2ccc(NN)nc2c1O,inhibition,[1],88%
same,IC50,[2],18000 nM
COc1ccc(C)cc1/N=N/c1ccc(O)c2nc(C=O)ccc12,inhibition,[3],20%
Oc1c(Br)cc(Br)cc1/C=C/c1ccc2cccc(O)c2n1,inhibition,[1],-0%
Nc1cc(S(=O)(=O)O)c2cccnc2c1O,inhibition,[3],-0%
O=c1oc2ccc(Cl)cc2n1Cc1ccc(O)c2ncccc12,inhibition,[3],16%
CC(C)(CCl)C(=O)Oc1ccc(Cn2ccnc2)c2cccnc12,IC50,[4],12400 nM
same,IC50,[5],8900 nM
same,ΔTm,[6],2.4 °C
same,IC50,[2],54 nM
same,IC50,[9],3600 nM
Oc1ccc(Cn2cnc(F)c2)c2cccnc12,IC50,[4],34300 nM
same,inhibition,[16],Dose-dependent effect
same,IC50,[5],2200 nM
same,ΔTm,[6],4.6 °C
same,IC50,[2],70 nM
same,"inhibition at 2.5 min, 40 µM",[13],10%
same,inhibition,[17],Dose-dependent effect
same,IC50,[9],1200 nM
same,half-life at 1 µM,[10],23 min
Cc1ccc2c(Cn3ccnc3)ccc(O)c2n1,inhibition,[3],41%
O=S(=O)(Nc1ccc(O)c2ncccc12)c1ccc(Cl)cc1,inhibition,[3],-0%
Oc1ccc(CSc2nc3ccccc3s2)c2cccnc12,inhibition,[3],18%
CC(C)(C)OC(=O)Oc1ccc(Cn2ccnc2)c2cccnc12,IC50,[4],31500 nM
same,IC50,[5],11500 nM
same,ΔTm,[6],4.5 °C
same,IC50,[2],176 nM
same,IC50,[9],1800 nM
CN(C)c1ccc2cccc(O)c2n1,inhibition,[3],-0%
Oc1cccc2ccc(N3CCCCC3)nc12,inhibition,[3],-0%
Oc1ccc(Cn2cnc3ccccc32)c2cccnc12,IC50,[4],4700 nM
same,inhibition,[16],Dose-dependent effect
same,IC50,[5],1000 nM
same,ΔTm,[6],3.1 °C
same,IC50,[2],337 nM
same,"inhibition at 2.5 min, 40 µM",[13],33%
same,inhibition,[17],Dose-dependent effect
same,IC50,[9],3000 nM
same,half-life at 1 µM,[10],31 min
Cc1ccc2c(Cn3cnc(F)c3)ccc(OC(=O)OC(C)(C)C)c2n1,IC50,[4],2700 nM
same,IC50,[5],2900 nM
same,ΔTm,[6],4.6 °C
same,IC50,[2],46 nM
same,IC50,[9],1100 nM
same,half-life at 1 µM,[10],1.6 min
O=S(=O)(O)c1ccc(/N=N/c2ccc(O)c3ncccc23)cc1,inhibition,[3],-0%
CC(C)(C)OC(=O)Oc1ccc(Cn2c(-c3cscn3)nc3ccccc32)c2cccnc12,inhibition,[3],11%
Nc1ccc2c(Cn3ccnc3)ccc(O)c2n1,IC50,[5],20400 nM
same,ΔTm,[6],3.8 °C
same,IC50,[2],292 nM
CCOc1c(Br)cc(Br)cc1/C=C/c1ccc2cccc(O)c2n1,inhibition,[1],-0%
Oc1cccc2ccc(/C=C/c3ccc(-c4cccc(Br)c4)o3)nc12,inhibition,[1],< 7.8%
COc1ccc(C)cc1/N=N/c1ccc(O)c2nc(/C=N/O)ccc12,inhibition,[3],24%
Cc1cc(C)n(-c2ccc3c(Cl)cc(Cl)c(O)c3n2)n1,inhibition,[3],-0%
Oc1ccc(Cn2c(-c3cscn3)nc3ccccc32)c2cccnc12,IC50,[4],3700 nM
same,IC50,[5],1500 nM
same,ΔTm,[6],4.7 °C
same,IC50,[2],73 nM
same,IC50,[9],2100 nM
C=CC[n+]1cccc2cccc(O)c21,inhibition,[1],-0%
O=[N+]([O-])c1cccc(S(=O)(=O)Nc2ccc(O)c3ncccc23)c1,inhibition,[3],-0%
Cc1cc2ncn(Cc3ccc(O)c4ncccc34)c2cc1C,inhibition,[3],23%
Cc1sc2c(c1C)C(c1ccccc1)=N[C@@H](CC(=O)OC(C)(C)C)c1nnc(C)n1-2,IC50,[11],33 nM
